{
  "source": "patent US5298523A",
  "about": "“Method for treating transplant patients using mycalamide compounds” (priority 1992, dated 1994)",
  "key": {"[1]": {"assay": "T cell viability by trypan blue exclusion", "format": "cell-based, murine", "conditions": "t cells, read-out: percentage of trypan blue-positive cells", "procedure": "Determination of mycalamide A toxicity. The toxicity of mycalamide A on murine splenocytes and human PBL was determined using a colorimetric assay, based on the ability of viable cells to convert the colorless tetrazolium salt, 3-(4,5-dimethylthiazol-2yl)-2,5-diphenyl tetrazolium bromide (MTT) to a colored formazan product and trypan blue exclusion. For the colorimetric assay, a volume of 0.075 ml of an MTT solution (550 μg/ml of MTT in TCM) was added to test and control wells containing one of the populations of splenocytes or test wells and incubated for 5-6 hours following the initial incubation period. Microtiter plates were centrifuged at 100× g, supernatants carefully removed, and a volume of 0.20 ml of isopropyl alcohol was added to each well to dissolve the formazan crystals. The absorbance at 570 nm was determined for each well using an ELISA plate reader. […] As an additional parameter of toxicity, wells containing cultured lymphocytes with various dilutions of mycalamide A were examined with trypan blue, and the percentage of dye-excluding (viable) cells was determined.\nCompounds were added as indicated. Cells were harveste\nEach data point represents the mean value o"}, "murine CD4^+ T cells": {"tested_on": "murine CD4^+ T cells", "assay": "Activation of CD4+ T cells by PMA/mB7", "format": "cell-based, murine (BALB/c)", "conditions": "in words", "procedure": "(A) Costimulation of T cells with anti-CD3 mAb and mB7. […] (B) Costimulation of T cells with mB7 and PMA. […] All cultures were incubated for 48 hours and pulsed with 1 μCi [ ^3 H] thymidine/well for the last 6 hours of the incubation period to assay for T cell proliferation.\n(A) Costimulation of T cells with anti-CD3 mAb and mB7. 2×10^5 purified BALB/c CD4^+ T lymphocytes were stimulated with the indicated concentrations of anti-CD3 mAb in the presence of medium (.largecircle.), 2×10^4 paraformaldehyde-fixed CHO-mB7 cells (.quadrature.), or 2×10^4 paraformaldehyde-fixed CHO-mB7 cells in the presence of 0.1 nM FK506 (.gradient.), 1 nM FK506 (Δ), or 10 nM FK506 ( ). (B) Costimulation of T cells with mB7 and PMA. 2×10^5 purified BALB/c CD4^+ T lymphocytes were stimulated with the indicated concentrations of PMA and either medium (.largecircle.), 2×10^4 paraformaldehyde-fixed CHO-mB7 cells (.quadrature.), or paraformaldehyde-fixed CHO-mB7 cells in the presence of 0.1 nM FK506 (.gradient.), 1 nM FK506 (Δ), or 10 nM FK506 ( ). All cultures were incubated for 48 hours and pulsed with 1 μCi [^3 H] thymidine/well for the last 6 hours of the incubation period to assay for T cell proliferation.\n(A) Costimulation of T cells with anti-CD3 mAb and mB7. […]"}, "[2]": {"tested_on": "graft vs. host reaction, CB6F1 mice grafted with BALB/c splenocytes", "assay": "Graft vs. host reaction (Simonsen splenomegaly assay)", "format": "in vivo, mouse", "conditions": "for % Suppression / Number of surviving mice at the end of the experiment / Stim. index: Days 1-7", "procedure": "Graft vs. host reaction. In vivo studies with mycalamide A utilized the […]→F1, GVHR model (Simonsen splenomegaly assay). CB6F1 male mice, 4 weeks of age, were injected intraperitoneally with 5×10^7 splenocytes from BALB/c male mice, 8 weeks of age, on day 0 (BALB/c→CB6F1). A syngeneic control group (CB6F1 →CB6F1) was similarly prepared and served as the negative control. For experiment 1, the grafted mice were divided into 5 treatment groups of 5 mice each. Groups were injected intraperitoneally with mycalamide A (dissolved initially in ethanol followed by dilution in sterile phosphate-buffered saline as a vehicle) or vehicle alone on days 1-7. For experiment 2, the grafted mice were divided into 7 treatment groups of 5 mice each and similarly injected intraperitoneally with mycalamide A, an immunosuppressive standard, didemnin B, or vehicle alone on days 1-7. On day 7 all groups were sacrificed, spleens excised, and the mean spleen weight and stimulation index calculated for each group. The stimulation index was calculated as follows: [formula] A spleen index of 1.3 or greater is considered a positive response.\n^a CB6F1 mice (5 per group) were grafted with 5 × 10^7\nBALB/c splenocytes, intraperitoneally on Day 0. Groups were injected\nintraperitoneally with drug or vehicle on Days 1-7. Positive indicates\ngrafted mice receiving vehicle alone.\n^b Number of surviving mice at the end of the experiment.\n^c Stimulation index (SI) = (spleen weight of test group/body weight\nof test group)/(spleen weight of syngeneic group/body weight of syngeneic\n^d Suppression = [(SI of positive control) (SI of test group)]/[(SI\nof positive control) (SI of syngeneic group)].\n^e Didemnin B immunosuppressive standard."}, "[3]": {"conditions": "Experiment #2, 0.005 mg/kg i.p."}},
  "data": [
    {"smiles": "C=C1CC(OC)(C(O)C(=O)NC2OCOC3C2OC(CC(O)CO)C(C)(C)C3OC)OC(C)C1C", "note": "(centres unmarked) [Mycalamide A, mycalamide A]", "values": [
      {"measurement": "cytotoxicity at 20 h, 1e-06 µM", "setting": "[1]; 1 pM, Experiment 1, 20 hours", "value": "< 2", "unit": "%"},
      {"measurement": "cytotoxicity at 20 h, 5e-06 µM", "setting": "[1]; 5 pM, Experiment 1, 20 hours", "value": "< 2", "unit": "%"},
      {"measurement": "cytotoxicity at 20 h, 1e-05 µM", "setting": "[1]; 10 pM, Experiment 2, 20 hours", "value": "< 2", "unit": "%"},
      {"measurement": "effect on PMA/CHO-mB7 stimulation of CD4+ cells", "setting": "murine CD4^+ T cells", "value": "blocks activation"},
      {"measurement": "% Suppression", "setting": "[2]; Experiment #1, 0.01 mg/kg i.p.", "value": 102, "unit": "%"},
      {"measurement": "Number of surviving mice at the end of the experiment", "setting": "[2]; Experiment #1, 0.01 mg/kg i.p.", "value": "5/5"},
      {"measurement": "Stim. index", "setting": "[2]; Experiment #1, 0.01 mg/kg i.p.", "value": 0.99},
      {"measurement": "% Suppression", "setting": "[2]; Experiment #1, 0.05 mg/kg i.p.", "value": 0, "unit": "%"},
      {"measurement": "Number of surviving mice at the end of the experiment", "setting": "[2]; Experiment #1, 0.05 mg/kg i.p.", "value": "0/5"},
      {"measurement": "% Suppression", "setting": "[2]; Experiment #1, 0.1 mg/kg i.p.", "value": 0, "unit": "%"},
      {"measurement": "Number of surviving mice at the end of the experiment", "setting": "[2]; Experiment #1, 0.1 mg/kg i.p.", "value": "0/5"},
      {"measurement": "% Suppression", "setting": "[2]; [3]", "value": 0, "unit": "%"},
      {"measurement": "Number of surviving mice at the end of the experiment", "setting": "[2]; [3]", "value": "5/5"},
      {"measurement": "Stim. index", "setting": "[2]; [3]", "value": 1.92},
      {"measurement": "% Suppression", "setting": "[2]; Experiment #2, 0.01 mg/kg i.p.", "value": 88, "unit": "%"},
      {"measurement": "Number of surviving mice at the end of the experiment", "setting": "[2]; Experiment #2, 0.01 mg/kg i.p.", "value": "5/5"},
      {"measurement": "Stim. index", "setting": "[2]; Experiment #2, 0.01 mg/kg i.p.", "value": 1.06},
      {"measurement": "% Suppression", "setting": "[2]; Experiment #2, 0.05 mg/kg i.p.", "value": 0, "unit": "%"},
      {"measurement": "Number of surviving mice at the end of the experiment", "setting": "[2]; Experiment #2, 0.05 mg/kg i.p.", "value": "0/5"},
      {"measurement": "% Suppression", "setting": "[2]; Experiment #2, 0.1 mg/kg i.p.", "value": 0, "unit": "%"},
      {"measurement": "Number of surviving mice at the end of the experiment", "setting": "[2]; Experiment #2, 0.1 mg/kg i.p.", "value": "0/5"},
      {"measurement": "toxicity in mice", "setting": "[2]; dosages higher than 0.01 mg/kg i.p., in words", "value": "toxic"},
      {"measurement": "immunosuppression in GVHR", "setting": "[2]; dosages lower than 0.01 mg/kg i.p., in words", "value": "not immunosuppressive"}
    ]}
  ]
}
